Laboratory results: patent publication US8835134B2, “Cycloastragenol monoglucoside, preparation, pharmaceutical composition and application thereof” (Tianjin Institute of Pharmaceutical Research, priority 2007, dated 2014)

System: anesthetized open-chest dogs
Assay: Hemodynamics of anesthetized open-chest dogs, intravenous infusion
Assay type: in vivo, mongrel dogs
Protocol: The animals were anesthetized by intravenous injection of 30 mg/kg sodium pentobarbital, tracheally intubated, and mechanically ventilated with positive air pressure. Left thoracotomy was performed through the fourth intercostal space and the heart was suspended in a pericardial cradle, the aortic root was isolated and a probe of blood flow meter (12 or 14 mm in diameter) was fixed to measure the aortic blood flow as a representation of cardiac output (CO), the circumflex branch of left coronary artery was isolated and a probe of blood flow meter (2 or 2.5 mm in diameter) was fixed to measure the coronary blood flow (CBF). A polyethylene catheter filled with heparin physiological saline was inserted through cardiac apex into the left ventricle to measure the left ventricular pressure (LVP) and left ventricular end-diastolic pressure (LVEDP), Peak positive and peak negative first derivatives of the LVP (+ LVdp/dt and − LVdp/dt) were calculated with the Acknowledge software. The systolic blood pressure (SBP), diastolic blood pressure (DBP) and mean arterial pressure (MAP) were measured by polyethylene catheter via the femoral artery, ECG □ was measured by a AC-601G ECG amplifier. The above-mentioned analog signal was input into a data acquisition workstation (MP100, BIOPAC Systems, USA) to a computer running Acknowledge (version 3.7.1).
After surgery, various indexes before administration were recorded until the indexes were stable, and then intravenous infusion administration was conducted. Thirty dogs were divided into five groups (six dogs in each group), the experiment groups were given 0.15, 0.3, 0.6 mg/kg of ASP-[…] respectively, the normal control group was given 1 ml/kg of solvent, and the positive control group was given 0.3 mg/kg of astragaloside IV. The delivery volumes were 15 ml for each dog was and the delivery velocity was 1 ml/min. The indexes were recorded at 5, 10, 15, 20, 30, 45, 60, 90 and 120 mins after drug administration. At the end of experiment, the hearts were excised and weighted. The myocardial blood flow for per hectogram (CF), coronary resistance (CR), cardiac index (CI), left ventricular work (LVW) and total peripheral resistance (TPR) were calculated according to the following formulae: CF=CBF×[…]/heart weight CR=MAP/CF CI=CO/0.11×(body weight)^2/3 LVW=CO×(MAP−5)×1.052×0.0136 TPR=MAP×79.92/CO
Data are expressed as mean±SD ( x±s), the paired t-test was used to compare the significance between before and after administration, the unpaired t-test was adopted for comparison between groups.

[1] = 0.6 mg/kg iv, 15 min after administration
[2] = 0.6 mg/kg iv, 20 min after administration
[3] = 0.6 mg/kg iv, 30 min after administration
[4] = 0.6 mg/kg iv, 45 min after administration
[5] = 0.6 mg/kg iv, 60 min after administration
[6] = 0.6 mg/kg iv, 90 min after administration
[7] = 0.6 mg/kg iv, 120 min after administration
[8] = 0.6 mg/kg iv, before administration
[9] = 0.15, 0.3 and 0.6 mg/kg iv, within 120 min

CC(C)(O)[C@@H]1CC[C@](C)([C@H]2[C@@H](O)C[C@@]3(C)C4C[C@H](OC5OC(CO)C(O)C(O)C5O)C5C(C)(C)[C@@H](O)CC[C@@]56C[C@@]46CC[C@]23C)O1 (stereo partly drawn) [CMG, Cycloastragenol-6-O-β-D-glucoside]
LVW change vs before administration [1]: (0.06 ± 0.13) kg · m
TPR [1]: 5249 ± 2234 dyn · s/cm^5
TPR change vs before administration [1]: (−258 ± 392) dyn · s/cm^5
dp/dt [1]: 1199 ± 288 mmHg/s
dp/dt change vs before administration [1]: (95 ± 56) mmHg/s
−dp/dt [1]: −851 ± 196 mmHg/s
−dp/dt change vs before administration [1]: (2 ± 98) mmHg/s
CF [2]: 49.8 ± 8.0 ml/min/100 g
CF change vs before administration [2]: (−1.4 ± 1.4) ml/min/100 g
CI [2]: 2.05 ± 0.41 L/min/m^2
CI change vs before administration [2]: (0.09 ± 0.18) L/min/m^2
CO [2]: 1.19 ± 0.34 L/min
CO change vs before administration [2]: (0.05 ± 0.10) L/min
CR [2]: 1.48 ± 0.36 mmHg/ml/min/100 g
CR change vs before administration [2]: (0.06 ± 0.10) mmHg/ml/min/100 g
LVEDP [2]: 1.2 ± 1.6 mmHg
LVEDP change vs before administration [2]: (−1.5 ± 0.54) mmHg
LVP [2]: 107 ± 17 mmHg
LVP change vs before administration [2]: (0.4 ± 3.9) mmHg
LVW [2]: 1.13 ± 0.35 kg · m
LVW change vs before administration [2]: (0.06 ± 0.17) kg · m
TPR [2]: 5176 ± 1818 dyn · s/cm^5
TPR change vs before administration [2]: (−331 ± 534) dyn · s/cm^5
dp/dt [2]: 1276 ± 339 mmHg/s
dp/dt change vs before administration [2]: (172 ± 151) mmHg/s
−dp/dt [2]: −842 ± 220 mmHg/s
−dp/dt change vs before administration [2]: (10 ± 91) mmHg/s
CF [3]: 50.7 ± 8.5 ml/min/100 g
CF change vs before administration [3]: (−0.5 ± 4.0) ml/min/100 g
CI [3]: 2.05 ± 0.57 L/min/m^2
CI change vs before administration [3]: (0.09 ± 0.12) L/min/m^2
CO [3]: 1.20 ± 0.43 L/min
CO change vs before administration [3]: (0.05 ± 0.07) L/min
CR [3]: 1.46 ± 0.38 mmHg/ml/min/100 g
CR change vs before administration [3]: (0.04 ± 0.08) mmHg/ml/min/100 g
LVEDP [3]: 1.3 ± 1.5 mmHg
LVEDP change vs before administration [3]: (−1.4 ± 0.6) mmHg
LVP [3]: 107 ± 17 mmHg
LVP change vs before administration [3]: (0.9 ± 5.6) mmHg
LVW [3]: 1.15 ± 0.45 kg · m
LVW change vs before administration [3]: (0.07 ± 0.13) kg · m
TPR [3]: 5406 ± 2485 dyn · s/cm^5
TPR change vs before administration [3]: (−101 ± 366) dyn · s/cm^5
dp/dt [3]: 1232 ± 274 mmHg/s
dp/dt change vs before administration [3]: (128 ± 108) mmHg/s
−dp/dt [3]: −833 ± 243 mmHg/s
−dp/dt change vs before administration [3]: (20 ± 96) mmHg/s
CF [4]: 50.4 ± 7.8 ml/min/100 g
CF change vs before administration [4]: (−0.8 ± 4.7) ml/min/100 g
CI [4]: 1.97 ± 0.30 L/min/m^2
CI change vs before administration [4]: (0.01 ± 0.26) L/min/m^2
CO [4]: 1.15 ± 0.27 L/min
CO change vs before administration [4]: (0.00 ± 0.15) L/min
CR [4]: 1.48 ± 0.35 mmHg/ml/min/100 g
CR change vs before administration [4]: (0.06 ± 0.16) mmHg/ml/min/100 g
LVEDP [4]: 1.3 ± 1.7 mmHg
LVEDP change vs before administration [4]: (−1.41 ± 0.81) mmHg
LVP [4]: 106 ± 16 mmHg
LVP change vs before administration [4]: (0.2 ± 5.2) mmHg
LVW [4]: 1.1 ± 0.29 kg · m
LVW change vs before administration [4]: (0.03 ± 0.23) kg · m
TPR [4]: 5337 ± 1723 dyn · s/cm^5
TPR change vs before administration [4]: (−170 ± 595) dyn · s/cm^5
dp/dt [4]: 1181 ± 320 mmHg/s
dp/dt change vs before administration [4]: (77 ± 53) mmHg/s
−dp/dt [4]: −842 ± 170 mmHg/s
−dp/dt change vs before administration [4]: (10 ± 126) mmHg/s
CF [5]: 50.2 ± 11.6 ml/min/100 g
CF change vs before administration [5]: (−1.0 ± 6.9) ml/min/100 g
CI [5]: 2.04 ± 0.36 L/min/m^2
CI change vs before administration [5]: (0.08 ± 0.24) L/min/m^2
CO [5]: 1.19 ± 0.32 L/min
CO change vs before administration [5]: (0.04 ± 0.13) L/min
CR [5]: 1.53 ± 0.47 mmHg/ml/min/100 g
CR change vs before administration [5]: (0.11 ± 0.26) mmHg/ml/min/100 g
LVEDP [5]: 1.6 ± 1.6 mmHg
LVEDP change vs before administration [5]: (−1.05 ± 0.76) mmHg
LVP [5]: 105 ± 14 mmHg
LVP change vs before administration [5]: (−0.8 ± 7.7) mmHg
LVW [5]: 1.17 ± 0.40 kg · m
LVW change vs before administration [5]: (0.10 ± 0.20) kg · m
TPR [5]: 5170 ± 1416 dyn · s/cm^5
TPR change vs before administration [5]: (−336 ± 1012) dyn · s/cm^5
dp/dt [5]: 1199 ± 294 mmHg/s
dp/dt change vs before administration [5]: (95 ± 76) mmHg/s
−dp/dt [5]: −829 ± 157 mmHg/s
−dp/dt change vs before administration [5]: (24 ± 167) mmHg/s
CF [6]: 48.6 ± 7.2 ml/min/100 g
CF change vs before administration [6]: (−2.6 ± 2.8) ml/min/100 g
CI [6]: 2.09 ± 0.53 L/min/m^2
CI change vs before administration [6]: (0.13 ± 0.20) L/min/m^2
CO [6]: 1.22 ± 0.40 L/min
CO change vs before administration [6]: (0.07 ± 0.12) L/min
CR [6]: 1.52 ± 0.37 mmHg/ml/min/100 g
CR change vs before administration [6]: (0.11 ± 0.12) mmHg/ml/min/100 g
LVEDP [6]: 1.3 ± 1.4 mmHg
LVEDP change vs before administration [6]: (−1.35 ± 0.72) mmHg
LVP [6]: 105 ± 12 mmHg
LVP change vs before administration [6]: (−1.3 ± 6.7) mmHg
LVW [6]: 1.17 ± 0.44 kg · m
LVW change vs before administration [6]: (0.10 ± 0.11) kg · m
TPR [6]: 5285 ± 2431 dyn · s/cm^5
TPR change vs before administration [6]: (−222 ± 606) dyn · s/cm^5
dp/dt [6]: 1152 ± 313 mmHg/s
dp/dt change vs before administration [6]: (48 ± 63) mmHg/s
−dp/dt [6]: −815 ± 238 mmHg/s
−dp/dt change vs before administration [6]: (37 ± 55) mmHg/s
CF [7]: 49.3 ± 7.3 ml/min/100 g
CF change vs before administration [7]: (−1.9 ± 5.0) ml/min/100 g
CI [7]: 2.07 ± 0.47 L/min/m^2
CI change vs before administration [7]: (0.11 ± 0.22) L/min/m^2
CO [7]: 1.21 ± 0.38 L/min
CO change vs before administration [7]: (0.06 ± 0.13) L/min
CR [7]: 1.42 ± 0.27 mmHg/ml/min/100 g
CR change vs before administration [7]: (0.00 ± 0.17) mmHg/ml/min/100 g
LVEDP [7]: 2.0 ± 1.2 mmHg
LVEDP change vs before administration [7]: (−0.73 ± 0.52) mmHg
LVP [7]: 102 ± 17 mmHg
LVP change vs before administration [7]: (−4.4 ± 5.9) mmHg
LVW [7]: 1.12 ± 0.42 kg · m
LVW change vs before administration [7]: (0.04 ± 0.18) kg · m
TPR [7]: 4925 ± 1674 dyn · s/cm^5
TPR change vs before administration [7]: (−582 ± 764) dyn · s/cm^5
dp/dt [7]: 1078 ± 283 mmHg/s
dp/dt change vs before administration [7]: (−25 ± 109) mmHg/s
−dp/dt [7]: −789 ± 269 mmHg/s
−dp/dt change vs before administration [7]: (64 ± 63) mmHg/s
+LVdp/dtmax maximum increase (0.6 mg/kg iv, at 5-10 min after administration): 22.6±11.8%
CF [8]: 51.2 ± 8.0 ml/min/100 g
CI [8]: 1.96 ± 0.54 L/min/m^2
CO [8]: 1.15 ± 0.40 L/min
CR [8]: 1.41 ± 0.35 mmHg/ml/min/100 g
LVEDP [8]: 2.7 ± 1.3 mmHg
LVP [8]: 106 ± 16 mmHg
LVW [8]: 1.08 ± 0.41 kg · m
TPR [8]: 5507 ± 2267 dyn · s/cm^5
dp/dt [8]: 1104 ± 295 mmHg/s
−dp/dt [8]: −852 ± 244 mmHg/s
duration of LVEDP decrease (0.15, 0.3 and 0.6 mg/kg iv): more than 2 hours
left ventricular work (LVW) (0.15, 0.3 and 0.6 mg/kg iv): no significant change
CF and CR [9]: no significant changes
CO and CI [9]: no significant changes
SBP, DBP, MAP and HR [9]: no significant changes
left ventricular pressure (LVP) [9]: no significant change
total peripheral resistance (TPR) [9]: no significant change
−LVdp/dtmax (0.3 and 0.6 mg/kg iv): no significant effect
